The text below walks through data of US11857529B2, “Methods for treating melanoma” (Olatec Therageutics, Inc., priority 2018, dated 2024).

Each structure is given as a SMILES string.

The target of one series is NLRP3 inflammasome (Homo sapiens, UniProt Q96P20). The note with it: reference 9; cited from earlier work.
The test system of the next series is B16F10 cells. Put plainly: B16F10 melanoma Matrigel plug tumor growth in mice fed standard or OLT1177 diet. It counts as in vivo. The note with it: OLT1177 diet 7.5 g/kg food (approx. 100 mg/kg/day) vs standard diet, 15 days after plug instillation; FIG. 1A. As for the experimental part:
(§1) C57BL/6J male mice, 6-8 weeks old (The Jackson Laboratory), were fed ad libitum with either a standard diet or a diet containing OLT1177® (dapansutrile) at a dose of 7.5 g per Kg of food for one week before subcutaneous instillation of a mixture of Matrigel and B16F10 cells (2×10^5) on the hind quarter of the mice. The dosage was approximately […] based on feed concentrations of 7.5 g/kg and food consumption of 4 g/day. These diets were continued after tumor implantation. Mice were sacrificed following 15 days from the plug instillation. Tissue and plasma were assessed after 15-day post-inoculation.

A further series deals with G-CSF. Put plainly: Plasma G-CSF in B16F10 tumor-bearing mice. The series is classed as in vivo. Particulars: OLT1177 diet vs standard diet, day 15, FIG. 1C. As for the experimental part:
(§2) Cytokine measurements. Cytokines in supernatants and cell lysates were measured by specific ELISA according to the manufacturer's instructions (DuoSet, R&D Systems, Minneapolis, MN).
as §1

For a further series, the system named is IL-6. Description: Plasma IL-6 in B16F10 tumor-bearing mice. The series is classed as in vivo. Particulars: OLT1177 diet vs standard diet, day 15, FIG. 1B. How it is done: as §2, §1
Series [1] concerns PMN-MDSC (CD11b+Ly6G+Ly6Clo). Put plainly: Flow cytometry of PMN-MDSC in tumor-bearing mice. The series is classed as in vivo. From the text: (§3) Flow cytometry analysis was used to assess the effect of NLRP3 inhibition on the activation and expansion of MDSCs, key mediators of tumor-associated immunosuppression. Bone marrow, spleen, and lymph node-derived cells were isolated and analyzed for the two main MDSCs subtypes: polymorphonuclear MDSCs (PMN-MDSC) expressing CD11b^+Ly6G^+Ly6C^lo and monocytic MDSCs (M-MDSC) expressing CD11b^+Ly6G^−Ly6C^hi. […] In the spleen, the level of PMN-MDSCs in tumor-bearing mice was increased compared to non-tumor-bearing mice (FIG. 4B). However, in mice fed the dapansutrile diet, we observed a restoration of the PMN-MDSC population at the level observed in the non-tumor-bearing mice (FIGS. 4A-4B). […] Treatment with dapansutrile prevented the tumor-induced effect on M-MDSCs expansion, normalizing the population to the non-tumor-bearing mice level (FIGS. 4D-4F).
In general terms: Flow cytometry measures light scatter and fluorescence of single cells or particles in a stream.

Another series deals with IL-17. Description: Intracellular cytokine staining for IL-17 in spleen-derived T cells of tumor-bearing mice. The series is classed as in vivo. Particulars: OLT1177 diet vs standard diet, FIG. 1E. As for the experimental part: as §1
Series [2] deals with M-MDSC (CD11b+Ly6G−Ly6Chi). Put plainly: Flow cytometry of M-MDSC in tumor-bearing mice. The series is classed as in vivo. Particulars: tumor-bearing mice on dapansutrile diet, relative to non-tumor-bearing mice.
From the text: as §3

A further series relates to VEGF. Put plainly: Plasma VEGF in tumor-bearing mice (tumor angiogenesis model). It counts as in vivo. Particulars: 7 days after plug, OLT1177 diet vs standard diet, FIG. 2A. How it is done: (§4) Tumor Angiogenesis Model. A mixture of Matrigel and B16F10 (2×10^5) was inoculated s.c. in the interscapular area of mice fed standard or OLT1177® diet. Following 7 days from the implantation, the plugs were removed, fixed in 4% paraformaldehyde, embedded in paraffin and sectioned (4 μm). Following, the sections were de-paraffinized, hydrated and stained with hematoxylin/eosin. Separate sections were subjected to heat-induced antigen retrieval (10 mM Citrate 0.05% Tween 20-pH 6.0) at 95° C. for 15 min. The sections were then placed in a humidified slide chamber, blocked for 1 h in 10% normal donkey serum (Jackson Immunologicals) and immunostained using an antibody for Von Willebrand factor (1:100, Millipore-Sigma, Burlington, MA) overnight at 4° C. for identification of new vessel formation. Anti-rabbit horseradish peroxidase enzyme (HRP) conjugated antibody (1:100, Jackson ImmunoResearch Laboratories, West Grove, PA) were used as secondary antibody for 2 hours at room temperature. […]
We next determined the ability of dapansutrile on inhibition of angiogenesis, an acquired ability of tumor cells to sustain a blood supply to nourish the growing tumor mass. […] After seven days to allow endothelial cell infiltration, plugs were removed, and plasma VEGF levels were determined.

The test system of a further series is HUVEC. Description: Angiogenesis assay (HUVEC) with melanoma conditioned media from 1205Lu cells. Particulars: MCM from 1205Lu cells treated with OLT1177 vs MCM, 5 hours on Matrigel; FIG. 2C. The series is classed as cell-based, human. As for the experimental part: Cell culture. 1205Lu human melanoma cells were cultured in RPMI. Each was supplemented with 10% FBS, 100 units/mL penicillin, 0.1 mg/ml streptomycin. Cells were maintained in a humidified 5% CO2 atmosphere at 37 C. Human metastatic melanoma cell line 1205Lu were plated in RPMI at 2.5×10^5 per well in a 24-wells plate and allowed to adhere overnight. The following day, media was replaced with fresh RPMI 10% FBS with or without OLT1177® (dapansutrile). For the induction of cytokine production IL-1α (20 ng/ml) was used. OLT1177® was added 30 minutes prior to stimulation. Supernatants were collected, in both unstimulated and stimulated conditions at 24 hours.
Angiogenesis assay (HUVEC). HUVEC cells were seeded on media with no growth factors overnight. Cells were plated onto Matrigel (Corning) coated wells at 8×10^4 cells per well in a 24 well plate. Cells were then incubated for 5 hours in the presence of HUVEC complete media (control), MCM or MCM in which 1205Lu cells were treated with OLT1177®. MCM was added without dilution. Media was then removed and matrigel was preserved in PFA4%. Pictures were taking at 40× and branching points were counted using the cross method.
The effects of dapansutrile on angiogenesis was determined in vitro using human umbilical vein endothelial cells (HUVEC). […]

The subject of the next series is B16F10-GFP cells. Description: Metastasis model: i.v. B16F10-GFP cells, GFP+ cell counts in lung and liver. It counts as in vivo, mice. The note with it: 21 days after i.v. B16F10-GFP, OLT1177 diet vs standard diet. How it is done:
Metastasis Model. Metastasis formation was determined following tail intravenous (i.v.) injection of B16F10-GFP (1×10^6) cells in mice fed standard or OLT1177® diet. Before injection, the B16F10-GFP+ cells were sorted by flow cytometry and only the top brightest 10% cells were injected. Mice were sacrificed after 21 days from the cell injection and lung and liver were isolated and prepared for histology. Previous isolation, lungs were inflated with a solution containing 0.5% low melting agarose to avoid the tissue from collapsing. The presence of GFP-positive cell in the lung and liver of tumor bearing mice were performed by fluorescent microscopy. Tissue sections were stained with Alexa Fluor conjugated WGA, for membranes detection and DAPI, for nuclear stain. Images were acquired blindly and randomly across the tissue sections to obtain 7-10 images per tissue section. GFP positive cells were counted in each image and the results reported as number of GFP+ cells/field area (full chip field).
To determine whether dapansutrile reduces tissue invasion and metastasis, B16F10-GFP labeled cells were injected intravenously in mice fed with standard or OLT1177® diets.

A further series deals with IL-22. Put plainly: Intracellular cytokine staining for IL-22 in spleen-derived T cells of tumor-bearing mice. The series is classed as in vivo. The note with it: OLT1177 diet vs standard diet, FIG. 1D. As for the experimental part: as §1
The test system of series [3] is Von Willebrand Factor stained endothelial cells. Description: Tumor angiogenesis model: Von Willebrand Factor staining of B16F10 Matrigel plugs. It counts as in vivo, mice. The note with it: 7 days after implantation, OLT1177 diet vs standard diet; FIG. 2B. How it is done:
as §4, with “temperature. Sections were then incubated for 5-10 min with HRP substrate as directed by the manufacturer's instructions (NovaRED substrate, Vector Laboratories, Burlingame, CA). Nuclei counterstaining were achieved using Mayer's Hematoxylin counterstaining (Thermo Fisher scientific Waltham, MA).” for “temperature.”

For series [4] the following is noted: healthy subjects, reference 9; cited from earlier work.

Chain of NLRP3 inflammasome (Q96P20 whole entry): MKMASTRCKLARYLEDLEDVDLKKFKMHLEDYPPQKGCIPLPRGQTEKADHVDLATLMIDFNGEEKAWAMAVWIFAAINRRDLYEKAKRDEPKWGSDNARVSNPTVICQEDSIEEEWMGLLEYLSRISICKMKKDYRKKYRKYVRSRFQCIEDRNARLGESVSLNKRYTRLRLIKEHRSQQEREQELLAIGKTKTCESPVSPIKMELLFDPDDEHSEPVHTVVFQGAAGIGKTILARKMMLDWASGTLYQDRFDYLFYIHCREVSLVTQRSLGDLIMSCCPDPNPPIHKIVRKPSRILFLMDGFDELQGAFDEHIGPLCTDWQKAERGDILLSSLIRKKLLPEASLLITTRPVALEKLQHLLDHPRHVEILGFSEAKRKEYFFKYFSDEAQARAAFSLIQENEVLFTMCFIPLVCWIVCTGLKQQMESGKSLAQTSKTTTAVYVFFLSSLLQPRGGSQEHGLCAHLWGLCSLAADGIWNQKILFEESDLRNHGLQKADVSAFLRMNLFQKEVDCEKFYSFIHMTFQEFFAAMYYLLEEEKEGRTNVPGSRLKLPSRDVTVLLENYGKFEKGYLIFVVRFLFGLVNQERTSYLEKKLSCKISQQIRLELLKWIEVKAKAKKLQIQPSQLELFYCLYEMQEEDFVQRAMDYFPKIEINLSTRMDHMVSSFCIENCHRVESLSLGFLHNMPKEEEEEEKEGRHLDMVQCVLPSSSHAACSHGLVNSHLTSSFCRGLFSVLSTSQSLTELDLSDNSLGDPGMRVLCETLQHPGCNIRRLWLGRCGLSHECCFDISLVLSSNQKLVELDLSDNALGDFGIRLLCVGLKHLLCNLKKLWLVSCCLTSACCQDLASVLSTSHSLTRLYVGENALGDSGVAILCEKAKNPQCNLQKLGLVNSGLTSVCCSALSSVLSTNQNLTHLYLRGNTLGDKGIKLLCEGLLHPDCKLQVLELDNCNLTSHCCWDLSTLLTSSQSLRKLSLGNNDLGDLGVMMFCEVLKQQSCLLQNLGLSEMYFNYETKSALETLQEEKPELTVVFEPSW

Regarding `CS(=O)(=O)CCC#N` [OLT1177®, 3-methanesulfonyl-propionitrile], on NLRP3 inflammasome, the “inhibition of the NLRP3 inflammasome” value is given as “selectively inhibit”. Moreover, the tumor volume result with B16F10 cells is recorded as “reduced”. Further, the “plasma levels of G-CSF” value in the series on G-CSF is on record as “significantly reduced”. In addition, the “plasma levels of IL-6” value in the series with IL-6 is reported as “significantly reduced”. Besides, in [1] (dapansutrile diet vs standard diet, FIG. 4C), the “PMN-MDSCs in lymph nodes” value is on record as “reduction”. For the same compound, in [1] (tumor-bearing mice on dapansutrile diet, relative to non-tumor-bearing mice, FIG. 4A), the “PMN-MDSC population in bone marrow” value was “restoration”. In addition, the “PMN-MDSC population in spleen” value in series [1] (tumor-bearing mice on dapansutrile diet, relative to non-tumor-bearing mice, FIG. 4B) was “restoration”. Further, the “IL-17 (ICCS, spleen-derived T cells)” value in the series on IL-17 was “No changes”. Also, the “M-MDSC population in bone marrow” value in [2] (FIG. 4D) is on record as “normalizing”. Also, the “M-MDSC population in spleen” value in series [2] (FIG. 4E) was “normalizing”. In addition, the “M-MDSC population in lymph nodes” value in series [2] (FIG. 4F) is given as “normalizing”. Also, the “circulating VEGF levels” value in the series with VEGF was “significantly lower”. In the series on HUVEC, the “HUVEC orientation (number of branching points / tubular-like structures)” value was “significantly reduced”. Also, the “reduction of number of GFP+ cells in the lungs” value in the series on B16F10-GFP cells (p<0.0001, FIG. 3A) is 66%. In the series on B16F10-GFP cells (p<0.001, FIG. 3B), the “change in number of GFP+ cells in the liver” value is recorded as −60%. In the series with IL-22, the “IL-22 levels (ICCS, spleen-derived T cells)” value was “reduced”. In addition, in series [3], the “VWF stained endothelial cells in matrigel plugs (new vessel formation)” value is listed as “reduced”. Also, the “safety when orally administered” value in series [4] is reported as “safe”.
